Test results: ChEMBL document CHEMBL3596159, “Beyond substrate analogues: new inhibitor chemotypes for glycosyltransferases” (Medchemcomm, 2014)
≈ marks a conversion by molar mass, not a printed value. One block for each compound: values may come before it.

Key:
[1] = Inhibition of MGDG (unknown origin)
[2] = biological target: Alpha-(1,6)-fucosyltransferase (Homo sapiens, UniProt Q9BYC5); assay: Inhibition of FucT-8 in human blood platelets
[3] = biological target: T1, CMP-N-acetylneuraminate-beta-galactosamide-alpha-2,3-sialyltransferase 1 (Homo sapiens, UniProt Q11201); assay: Inhibition of ST3Gal 1 (unknown origin)
T1 sequence (Q11201 whole entry): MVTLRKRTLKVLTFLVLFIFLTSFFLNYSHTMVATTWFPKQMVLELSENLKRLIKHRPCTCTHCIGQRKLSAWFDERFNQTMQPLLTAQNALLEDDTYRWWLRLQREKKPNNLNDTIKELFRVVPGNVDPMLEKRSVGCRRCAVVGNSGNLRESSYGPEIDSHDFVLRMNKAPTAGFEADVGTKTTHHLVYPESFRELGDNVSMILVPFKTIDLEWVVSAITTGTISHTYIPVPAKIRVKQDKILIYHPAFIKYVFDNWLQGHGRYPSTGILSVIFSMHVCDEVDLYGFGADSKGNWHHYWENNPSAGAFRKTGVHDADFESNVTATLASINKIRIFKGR

[4] = biological target: T2, 4-galactosyl-N-acetylglucosaminide 3-alpha-L-fucosyltransferase FUT5 (Homo sapiens, UniProt Q11128); assay: Inhibition of FucT-5 (unknown origin)
T2 sequence (Q11128 whole entry): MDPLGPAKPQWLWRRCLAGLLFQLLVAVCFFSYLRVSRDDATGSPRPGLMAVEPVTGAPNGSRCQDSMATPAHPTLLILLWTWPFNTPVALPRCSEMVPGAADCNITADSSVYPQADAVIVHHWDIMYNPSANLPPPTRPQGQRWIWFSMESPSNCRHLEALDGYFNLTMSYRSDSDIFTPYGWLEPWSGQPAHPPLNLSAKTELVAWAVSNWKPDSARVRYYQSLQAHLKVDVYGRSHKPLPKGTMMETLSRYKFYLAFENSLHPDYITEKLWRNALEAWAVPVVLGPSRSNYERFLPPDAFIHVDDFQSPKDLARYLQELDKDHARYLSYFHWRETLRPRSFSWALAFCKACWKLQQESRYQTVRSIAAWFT

[5] = biological target: T3, 4-galactosyl-N-acetylglucosaminide 3-alpha-L-fucosyltransferase FUT6 (Homo sapiens, UniProt P51993); assay: Inhibition of FucT-6 (unknown origin)
T3 sequence (P51993 whole entry): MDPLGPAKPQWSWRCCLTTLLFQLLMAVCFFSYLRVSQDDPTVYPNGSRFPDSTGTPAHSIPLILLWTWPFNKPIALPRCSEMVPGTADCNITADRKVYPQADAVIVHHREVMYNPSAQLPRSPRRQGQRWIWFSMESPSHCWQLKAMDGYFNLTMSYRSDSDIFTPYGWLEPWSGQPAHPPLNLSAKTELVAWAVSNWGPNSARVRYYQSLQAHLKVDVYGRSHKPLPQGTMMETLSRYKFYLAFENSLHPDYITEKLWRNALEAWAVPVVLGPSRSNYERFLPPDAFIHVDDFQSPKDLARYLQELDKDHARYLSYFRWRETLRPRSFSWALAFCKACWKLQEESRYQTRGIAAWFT

[6] = biological target: T4, CMP-N-acetylneuraminate-beta-1,4-galactoside alpha-2,3-sialyltransferase (Homo sapiens, UniProt Q11203); assay: Inhibition of ST3N (unknown origin)
T4 sequence (Q11203 whole entry): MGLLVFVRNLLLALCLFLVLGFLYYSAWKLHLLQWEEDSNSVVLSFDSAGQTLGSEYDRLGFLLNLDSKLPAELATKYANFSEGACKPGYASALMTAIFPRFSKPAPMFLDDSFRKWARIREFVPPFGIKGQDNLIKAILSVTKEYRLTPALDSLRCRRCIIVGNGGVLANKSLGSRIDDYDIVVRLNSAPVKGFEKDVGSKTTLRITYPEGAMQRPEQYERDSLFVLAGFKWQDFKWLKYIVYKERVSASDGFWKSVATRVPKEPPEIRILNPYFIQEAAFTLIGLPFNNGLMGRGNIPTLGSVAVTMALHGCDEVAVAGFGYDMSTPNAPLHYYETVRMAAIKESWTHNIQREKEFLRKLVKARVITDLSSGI

[7] = biological target: T5, Beta-galactoside alpha-2,6-sialyltransferase 1 (Homo sapiens, UniProt P15907); assay: Inhibition of ST6N (unknown origin)
T5 sequence (P15907 whole entry): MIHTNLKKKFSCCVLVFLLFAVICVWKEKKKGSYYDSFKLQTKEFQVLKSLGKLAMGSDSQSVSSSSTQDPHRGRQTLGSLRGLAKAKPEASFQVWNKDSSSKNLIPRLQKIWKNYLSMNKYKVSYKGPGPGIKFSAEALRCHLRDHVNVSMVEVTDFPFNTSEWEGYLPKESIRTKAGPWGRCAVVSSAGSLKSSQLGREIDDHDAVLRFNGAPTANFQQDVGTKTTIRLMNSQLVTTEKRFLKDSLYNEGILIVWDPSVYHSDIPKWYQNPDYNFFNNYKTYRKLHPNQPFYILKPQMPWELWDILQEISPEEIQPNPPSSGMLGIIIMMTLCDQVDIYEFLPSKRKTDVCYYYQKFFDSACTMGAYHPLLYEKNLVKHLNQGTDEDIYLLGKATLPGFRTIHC

[8] = biological target: T6, Alpha-(1,3)-fucosyltransferase 7 (Homo sapiens, UniProt Q11130); assay: Inhibition of FucT-7 (unknown origin)
T6 sequence (Q11130 whole entry): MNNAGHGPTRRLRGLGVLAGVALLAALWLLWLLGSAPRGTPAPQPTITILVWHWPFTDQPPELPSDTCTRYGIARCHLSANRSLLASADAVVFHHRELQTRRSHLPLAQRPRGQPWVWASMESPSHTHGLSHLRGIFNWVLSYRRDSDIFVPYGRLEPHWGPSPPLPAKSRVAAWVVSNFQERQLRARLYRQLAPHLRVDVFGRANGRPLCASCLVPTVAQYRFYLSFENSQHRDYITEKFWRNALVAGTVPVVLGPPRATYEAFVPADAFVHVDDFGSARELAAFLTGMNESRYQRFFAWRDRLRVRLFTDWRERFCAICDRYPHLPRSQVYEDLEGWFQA

[9] = biological target: Alpha-(1,3)-fucosyltransferase 4 (Homo sapiens, UniProt P22083); assay: Inhibition of FucT-4 (unknown origin)
[10] = biological target: UDP-N-acetylglucosamine--N-acetylmuramyl-(pentapeptide) pyrophosphoryl-undecaprenol N-acetylglucosamine transferase (Escherichia coli (strain K12), UniProt P17443); assay: Inhibition of Escherichia coli MurG
[11] = biological target: T7, Phospho-N-acetylmuramoyl-pentapeptide-transferase/UDP-N-acetylglucosamine--N-acetylmuramyl-(pentapeptide) pyrophosphoryl-undecaprenol N-acetylglucosamine transf (Escherichia coli K-12, UniProt P0A6W3+P17443); assay: Inhibition of Escherichia coli MraY/MurG; format: protein assay
T7 sequence (P0A6W3 whole entry): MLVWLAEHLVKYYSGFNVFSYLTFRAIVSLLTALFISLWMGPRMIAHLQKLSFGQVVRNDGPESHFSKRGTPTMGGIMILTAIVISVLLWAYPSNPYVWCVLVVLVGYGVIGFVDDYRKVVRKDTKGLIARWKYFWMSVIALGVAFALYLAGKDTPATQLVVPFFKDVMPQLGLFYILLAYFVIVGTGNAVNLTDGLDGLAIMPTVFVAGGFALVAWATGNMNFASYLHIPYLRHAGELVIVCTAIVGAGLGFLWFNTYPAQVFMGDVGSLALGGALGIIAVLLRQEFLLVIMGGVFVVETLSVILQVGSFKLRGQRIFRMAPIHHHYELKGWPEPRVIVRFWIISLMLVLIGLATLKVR
T7 sequence (P17443 whole entry): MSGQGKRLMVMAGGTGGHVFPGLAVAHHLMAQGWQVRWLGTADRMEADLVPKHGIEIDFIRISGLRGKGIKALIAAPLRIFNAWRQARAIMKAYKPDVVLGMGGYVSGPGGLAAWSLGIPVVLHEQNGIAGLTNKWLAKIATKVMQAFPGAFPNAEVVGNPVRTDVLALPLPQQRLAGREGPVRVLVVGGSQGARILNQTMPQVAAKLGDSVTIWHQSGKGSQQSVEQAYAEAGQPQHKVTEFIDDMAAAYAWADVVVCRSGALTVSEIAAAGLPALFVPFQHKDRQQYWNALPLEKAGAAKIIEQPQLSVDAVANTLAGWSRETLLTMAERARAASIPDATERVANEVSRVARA

[12] = Inhibition of bovine beta-1,4-GalT using alpha-Fucp-(1-2)-beta-Galp-O-(CH2)7-CH3 as acceptor and UDP-Gal as substrate by radiochemical assay; design: species or system Bos taurus
[13] = Inhibition of candida albicans beta-(1,3)-glucan synthase assessed as decrease in transfer of radiolabelled glucose from UDP-[3H]-glucose onto acceptor
[14] = test system: Candida albicans; assay: Antifungal activity against Candida albicans; format: functional
[15] = Inhibition of beta-1,4-GalT (unknown origin); design: species or system Homo sapiens
[16] = Inhibition of short OGT (unknown origin); design: species or system Homo sapiens
[17] = biological target: UDP-N-acetylglucosamine--peptide N-acetylglucosaminyltransferase 110 kDa subunit (Homo sapiens, UniProt O15294); assay: Inhibition of nucleocytoplasmic OGT (unknown origin)
[18] = biological target: T1, CMP-N-acetylneuraminate-beta-galactosamide-alpha-2,3-sialyltransferase 1; assay: Inhibition of ST3Gal 1 (unknown origin) expressed in High Five cells; design: species or system BTI-TN-5B1-4

Chain of UDP-N-acetylglucosamine--peptide N-acetylglucosaminyltransferase 110 kDa subunit (O15294 whole entry): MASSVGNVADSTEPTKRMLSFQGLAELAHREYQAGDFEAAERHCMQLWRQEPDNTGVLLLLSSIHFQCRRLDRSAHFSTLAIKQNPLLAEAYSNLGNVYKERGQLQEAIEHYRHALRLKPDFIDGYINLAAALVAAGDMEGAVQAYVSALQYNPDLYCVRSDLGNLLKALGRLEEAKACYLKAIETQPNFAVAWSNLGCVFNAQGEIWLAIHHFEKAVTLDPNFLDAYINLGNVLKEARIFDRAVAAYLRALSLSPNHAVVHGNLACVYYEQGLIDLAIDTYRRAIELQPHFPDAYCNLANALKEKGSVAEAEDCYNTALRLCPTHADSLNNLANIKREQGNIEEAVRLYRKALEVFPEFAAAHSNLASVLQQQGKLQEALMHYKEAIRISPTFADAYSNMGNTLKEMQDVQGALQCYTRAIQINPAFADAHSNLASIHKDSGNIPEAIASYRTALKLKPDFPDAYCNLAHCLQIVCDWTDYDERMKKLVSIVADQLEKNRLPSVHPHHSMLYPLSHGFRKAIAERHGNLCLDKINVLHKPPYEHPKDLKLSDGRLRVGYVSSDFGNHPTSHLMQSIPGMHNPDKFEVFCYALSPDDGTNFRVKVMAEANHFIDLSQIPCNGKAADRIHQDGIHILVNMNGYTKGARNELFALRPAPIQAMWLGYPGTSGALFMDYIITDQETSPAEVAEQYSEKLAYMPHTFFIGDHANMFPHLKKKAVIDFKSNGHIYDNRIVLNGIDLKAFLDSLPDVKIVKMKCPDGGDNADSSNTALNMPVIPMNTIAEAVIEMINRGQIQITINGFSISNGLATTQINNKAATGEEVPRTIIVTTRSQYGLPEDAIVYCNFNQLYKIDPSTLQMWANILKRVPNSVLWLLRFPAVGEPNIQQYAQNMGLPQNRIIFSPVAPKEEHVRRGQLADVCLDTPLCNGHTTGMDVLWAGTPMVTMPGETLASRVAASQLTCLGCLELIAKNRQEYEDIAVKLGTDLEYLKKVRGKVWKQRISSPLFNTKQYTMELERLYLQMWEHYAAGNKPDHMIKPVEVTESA
Chain of Alpha-(1,6)-fucosyltransferase (Q9BYC5 whole entry): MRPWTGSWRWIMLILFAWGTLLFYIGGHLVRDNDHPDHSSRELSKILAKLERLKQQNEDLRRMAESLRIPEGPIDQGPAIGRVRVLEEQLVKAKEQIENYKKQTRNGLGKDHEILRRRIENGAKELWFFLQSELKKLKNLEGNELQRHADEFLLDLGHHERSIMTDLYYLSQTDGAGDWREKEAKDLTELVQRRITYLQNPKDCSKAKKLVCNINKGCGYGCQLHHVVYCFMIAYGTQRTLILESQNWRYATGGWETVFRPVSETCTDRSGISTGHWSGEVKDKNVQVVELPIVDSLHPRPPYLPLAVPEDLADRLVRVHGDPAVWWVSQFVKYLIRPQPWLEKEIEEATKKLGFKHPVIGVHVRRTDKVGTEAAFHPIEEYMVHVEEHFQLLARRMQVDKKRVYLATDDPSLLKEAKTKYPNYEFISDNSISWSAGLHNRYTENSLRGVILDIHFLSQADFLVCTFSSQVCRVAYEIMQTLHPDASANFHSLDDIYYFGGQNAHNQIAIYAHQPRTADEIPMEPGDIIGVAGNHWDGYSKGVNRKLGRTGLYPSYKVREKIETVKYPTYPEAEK
Chain of Alpha-(1,3)-fucosyltransferase 4 (P22083 whole entry): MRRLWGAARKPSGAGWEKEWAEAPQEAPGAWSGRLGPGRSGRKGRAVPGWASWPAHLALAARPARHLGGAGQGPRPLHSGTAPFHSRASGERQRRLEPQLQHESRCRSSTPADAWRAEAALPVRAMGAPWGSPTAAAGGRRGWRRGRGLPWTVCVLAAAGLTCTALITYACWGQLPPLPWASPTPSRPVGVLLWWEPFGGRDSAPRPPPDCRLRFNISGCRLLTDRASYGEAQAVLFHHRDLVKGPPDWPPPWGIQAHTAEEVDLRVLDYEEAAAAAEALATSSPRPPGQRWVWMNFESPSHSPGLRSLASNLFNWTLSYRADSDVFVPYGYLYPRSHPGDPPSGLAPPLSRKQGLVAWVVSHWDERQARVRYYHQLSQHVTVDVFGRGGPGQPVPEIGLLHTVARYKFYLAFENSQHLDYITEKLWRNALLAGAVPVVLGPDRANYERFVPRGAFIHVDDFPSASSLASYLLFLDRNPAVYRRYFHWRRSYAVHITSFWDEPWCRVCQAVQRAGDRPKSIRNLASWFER

Ki [2]: 11 µM
Compound: Nc1c(S(=O)(=O)O)cc(Nc2ccc(Nc3nc(Cl)nc(Nc4ccccc4S(=O)(=O)O)n3)c(S(=O)(=O)O)c2)c2c1C(=O)c1ccccc1C2=O [CIBACRON BLUE 3GA]

Ki [12]: 39 µM
Compound: O=Cc1ccc(-c2cn([C@@H]3O[C@H](COP(=O)(O)OP(=O)(O)O[C@H]4O[C@H](CO)[C@H](O)[C@H](O)[C@H]4O)[C@@H](O)[C@H]3O)c(=O)[nH]c2=O)s1

IC50 [16]: 30 µM | IC50 [17]: 53 µM
Compound: O=C(O)C1CC(=O)N(CC23CC4CC(CC(C4)C2)C3)/C(=N/c2ccc(Cl)cc2)S1 (stereo not given)

Ki [18]: 1.1 µM
Compound: H-GNWWWW-OH

More lines, now with the values behind:

Compound: C[C@@H](COC(=O)N1CCC(n2c(=O)[nH]c3ccccc32)CC1)N(Cc1ccccc1)Cc1ccccc1
IC50 [1]: 10 µM

Compound: O=C(OC[C@H](Cc1ccccc1)N(Cc1ccccc1)Cc1ccccc1)N1CCC(n2c(=O)[nH]c3ccccc32)CC1
IC50 [1]: 12 µM

Compound: C[C@@H]1CC[C@H]2C(C)(C)[C@H](O)[C@H](O)C[C@]2(C)[C@@]12Cc1c(O)cc3c(c1O2)COC3=O
IC50 [3]: 168 µM | IC50 [4]: > 200 µM | IC50 [5]: > 200 µM | IC50 [6]: 111 µM | IC50 [7]: 18.5 µM

Compound: O=C(O[C@H]1Cc2c(O)cc(O)cc2O[C@H]1c1cc(O)c(O)c(O)c1)c1cc(O)c(O)c(O)c1
IC50 [6]: 2.7 µM | IC50 [8]: 0.7 µM | IC50 [9]: 1.8 µM

Compound: CN[C@H](CC(C)C)C(=O)N[C@H]1C(=O)N[C@@H](CC(N)=O)C(=O)N[C@H]2C(=O)N[C@H]3C(=O)N[C@H](C(=O)N[C@H](C(=O)O)c4cc(O)cc(O)c4-c4cc3ccc4O)[C@H](O)c3ccc(c(Cl)c3)Oc3cc2cc(c3O[C@@H]2O[C@H](CO)[C@@H](O)[C@H](O)[C@H]2O[C@H]2C[C@](C)(N)[C@H](O)[C@H](C)O2)Oc2ccc(cc2Cl)[C@H]1O [VANCOMYCIN]
IC50 [10]: 10 µM | IC50 [11]: 9 µM

Compound: CC(=O)O[C@@H]1C[C@]23C4=CC[C@@]5(C)[C@H](C(=O)O)[C@@](C)([C@H](C)C(C)C)CC[C@]5(C)[C@H]4CC[C@H]2[C@@](C)(COC3O)[C@H]1O[C@@H]1O[C@H](CO)[C@@H](O)[C@H](O)[C@H]1O (stereo not given in full) [ENFUMAFUNGIN]
IC50 [13]: 1 µM | MIC [14]: 0.05 µg/mL (≈ 0.0705 µM)

Compound: O=C(NC[C@H]1O[C@@H](n2ccc(=O)[nH]c2=O)[C@H](O)[C@@H]1O)c1cccc(CO[C@@H]2O[C@H](CO)[C@H](O)[C@H](O)[C@H]2O)n1
IC50 [15]: 152 µM
